# Results from PubChem BioAssay AID1645865 (Buhrlage Lab, Dana-Farber Cancer Institute and Novartis …, 2021).
# Calls of active or inactive are those of the source.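 The calls were made as follows: active = maximal inhibition of the USP30 enzyme reaching 30% or more across the dose series; inactive = the rest.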
# Biological target: Ubiquitin carboxyl-terminal hydrolase 30 (Homo sapiens) (UniProt Q70CQ3)
# Assay: ubiquitin-specific protease 30 DUB inhibitors, concentration-effect, biochemical, validation of primary actives (AID 1645865)
# Settings: purified USP30, Ub-rhodamine cleavage, fluorescence, 2 h
# Chain of Ubiquitin carboxyl-terminal hydrolase 30 (Homo sapiens) (Q70CQ3 whole entry, looked up): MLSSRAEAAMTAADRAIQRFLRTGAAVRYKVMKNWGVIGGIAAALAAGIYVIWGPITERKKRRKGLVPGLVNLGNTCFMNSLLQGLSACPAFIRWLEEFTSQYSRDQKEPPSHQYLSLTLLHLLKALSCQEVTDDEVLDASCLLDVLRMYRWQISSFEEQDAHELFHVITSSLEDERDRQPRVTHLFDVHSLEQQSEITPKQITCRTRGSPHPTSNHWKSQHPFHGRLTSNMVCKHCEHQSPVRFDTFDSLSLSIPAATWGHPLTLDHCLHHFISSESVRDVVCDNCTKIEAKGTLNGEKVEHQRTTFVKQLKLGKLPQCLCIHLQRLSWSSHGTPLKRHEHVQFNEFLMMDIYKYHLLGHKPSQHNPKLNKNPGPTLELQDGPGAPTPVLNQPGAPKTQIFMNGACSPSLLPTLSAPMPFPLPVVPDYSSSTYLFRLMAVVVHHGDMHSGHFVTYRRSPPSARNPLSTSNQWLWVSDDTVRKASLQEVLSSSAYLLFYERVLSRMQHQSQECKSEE
row,IC50,Compound
1,> 50 µM (inactive),COC(=O)c1ccc(Cn2cnc3ccc(F)cc3c2=O)o1
2,> 50 µM (inactive),O=C(Cn1ncc2c(N3CCCCCC3)ncnc21)NCc1ccccc1
3,36 µM,Cc1c(C(=O)Nc2cccc(C(F)(F)F)c2)cnn1-c1ccccn1
4,34.9 µM,Cc1ccn(-c2ccc(NC(=O)c3ccccc3Sc3ccccc3C#N)cc2)n1
5,> 50 µM (inactive),Cc1cc(NC(=O)c2nnn(-c3ccccc3Cl)c2C)no1
6,> 50 µM (inactive),Cc1ccc2c(Nc3ccc(CC(=O)O)cc3)c(C(=O)N3CCCC3)cnc2n1
7,21.6 µM,O=C(CCCCn1c(=O)[nH]c2ccccc2c1=O)Nc1cccc(Cl)c1
8,4.43 µM,COc1ccc(C(=O)Nc2sc3c(c2C(=O)NCc2cccnc2)CCCC3)cc1
9,26.3 µM,Cc1c(CC(=O)N2CCN(c3ncccn3)CC2)c(=O)oc2cc(O)ccc12
10,> 50 µM (inactive),CC(C)(C)c1ccc(C(=O)Nc2ccc(Cn3cncn3)cc2)cc1
11,> 50 µM (inactive),CC1CCN(c2cc(-n3cnc(C(=O)N4CCCCC4)c3)ncn2)CC1
12,0.853 µM,COC(=O)c1ccc(C(=O)Nc2cc3ccccc3cc2NC(=O)c2ccc(C(=O)OC)cc2)cc1
13,> 50 µM (inactive),COc1ccccc1-c1ccc(CN2[C@@H](c3ccccc3)C[C@@H]3NC(=O)CCC[C@H]32)cc1
14,> 50 µM (inactive),CNC(=O)C1CN(C(=O)c2ccc(OC)cc2)CC12CCCC2 (stereo not given)
15,8.18 µM,COc1ccc(NC(=O)C2CC(=O)Nc3c(-c4ccc(Cl)cc4)cnn32)c(OC)c1 (stereo not given)
16,> 50 µM (inactive),O=C1CN(C(=O)COC(=O)CCCN2C(=O)c3cccc4cccc(c34)C2=O)c2ccccc2N1
17,0.0981 µM,Cc1nc(C(=O)Nc2cccc(Cl)c2Cl)nn1-c1cc(Cl)cc(Cl)c1
18,34.9 µM,O=C(COC(=O)c1n[nH]c2ccccc12)Nc1ccc(N2CCCCC2)cc1
19,> 50 µM (inactive),Cc1cc(Nc2ccc(C(=O)NCc3ccco3)cc2)n2nc(-c3cccnc3)nc2n1
20,0.445 µM,O=C(Nc1ccc(Cl)cc1F)c1cc(-c2ccccn2)n[nH]1
21,2.42 µM,O=c1c2ccccc2oc2nc(-c3cccs3)n(-c3ccccc3)c(=O)c12
22,18.2 µM,CCOC(=O)CSc1nnc(-c2cnn(-c3ccccc3)c2N)o1
23,> 50 µM (inactive),CCCc1nc2sc3c(N(CC)CC)ncnc3c2c2c1CCC2

row,IC50,Compound
1,16 µM,O=C(Nc1cccc(OC(=O)c2ccc(Cl)cc2)c1)c1ccc(Cl)cc1
2,26.5 µM,Cc1cc(C2CC(=O)Nc3c2c(C)nn3-c2nc3ccccc3[nH]2)c(C)s1 (stereo not given)
3,> 50 µM (inactive),Cc1ccccc1-c1noc(-c2ccccc2OCC(=O)NC(C)C)n1
4,> 50 µM (inactive),Cn1c(CCN2CCCC2)nc2cc(NS(=O)(=O)c3ccccc3)ccc21
5,> 5 µM (inactive),COCCCn1c(C(=O)Nc2ccccc2OC)cc2c(=O)n3ccccc3nc21
6,> 50 µM (inactive),O=C(Nc1ccc2c(c1)OCO2)C1CCN(Cc2nc3ccccc3s2)CC1
7,> 50 µM (inactive),O=C(NCc1ccc(F)cc1)C1CCN(c2cnc(N3CCCCC3)nc2)CC1
8,> 50 µM (inactive),Nc1nc(-c2ccc[nH]2)cs1
9,28 µM,CC(OC(=O)CNC(=O)c1ccc(Br)cc1)C(=O)Nc1ccc2c(c1)OCCO2 (stereo not given)
10,> 50 µM (inactive),CCOC(=O)c1cccc(NC(=O)Nc2cccn3nc(C)nc23)c1
11,28.6 µM,O=C(Nc1ccccc1)c1nc(-c2cn(Cc3ccc(F)cc3)nn2)no1
12,> 50 µM (inactive),O=C(NC(Cc1ccccc1)c1nc2ccccc2[nH]1)C1CC1 (stereo not given)
13,2.31 µM,CCCCc1ccc(-c2cc(C(=O)NCCN3CCOCC3)c3cc(Br)ccc3n2)cc1
14,> 50 µM (inactive),CCCCC/C=C/C=C/C(=O)OC1C(O)CC(c2ccc3c(c2O)C(=O)c2c(O)cc4cc(C)cc(O)c4c2C3=O)OC1C (stereo not given)
15,> 50 µM (inactive),COc1cccc2c1OCC(NS(=O)(=O)c1cc(C)ccc1C)C2 (stereo not given)
16,> 50 µM (inactive),COc1ccc(C(=O)CSc2ccc3nnc(CCNC(=O)c4ccc(OC)cc4)n3n2)cc1
17,> 50 µM (inactive),COc1cccc(NC(=O)C2Cn3ccnc3C3(CCN(C(C)=O)CC3)O2)c1 (stereo not given)
18,> 50 µM (inactive),CN(C(=O)c1ccncc1)[C@H]1CC[C@@]2(C)C[C@H](c3ccccc3)C[C@](C)(O2)[C@@H]1O
19,> 50 µM (inactive),O=C1c2ccccc2NC2(C(=O)Nc3ccc(Br)cc32)N1c1ccccc1 (stereo not given)
20,37.4 µM,Cc1cc(C)n(-c2ccc(C(=O)NCc3ccc(F)cc3)cn2)n1
21,> 50 µM (inactive),COc1ccccc1NC(=O)CSC1=NC2(CCCCC2)Nc2ccccc21
22,1.01 µM,CCOC(=O)c1ccc(NC(=O)Cn2c(=O)n(CC(=O)NCc3ccco3)c(=O)c3ccccc32)cc1
23,20.7 µM,COc1ccc(NC(=O)Cn2cc(C(=O)c3ccc(F)cc3)c(=O)c3cc(C)ccc32)cc1

row,IC50,Compound
1,> 50 µM (inactive),COc1ccc(C(C(=O)NCc2ccccc2)N(C(=O)CCN2CCc3ccccc32)c2ccc(C)c(C)c2)cc1 (stereo not given)
2,34.1 µM,CCCC(=O)Nc1nc2ccc(CCC(=O)NCc3ccc(F)cc3)cc2s1
3,3.46 µM,Cc1ccccc1NC(=O)c1nc(-c2cn(Cc3ccc(F)cc3)nn2)no1
4,29.5 µM,CSc1ncccc1C(=O)NC1(O)C(=O)c2ccccc2C1=O
5,2.51 µM,CCOC(=O)c1ccc(S(=O)(=O)N2CCC(C(=O)OC(C)C(=O)Nc3cccc([N+](=O)[O-])c3)CC2)cc1 (stereo not given)
6,2.59 µM,COc1ccccc1Nc1ncc(C(=O)NCCc2ccc(Cl)cc2)c2ccccc12
7,> 50 µM (inactive),CCOC(=O)c1ccc(-n2c(=O)c(C#N)cc3c(=O)n4ccccc4nc32)cc1
8,> 50 µM (inactive),O=C(Cc1noc2ccccc12)N1CCN(c2ccc([N+](=O)[O-])cc2)CC1
9,> 50 µM (inactive),Cc1ccc2c(c1C)NC(=O)[C@]21[C@@H]2C(=O)N(c3cccc(Cl)c3)C(=O)[C@@H]2[C@@H]2CCCN21
10,1.15 µM,Cc1ccc(CNC(=O)Cn2cnc3c(cnn3-c3cccc(Cl)c3)c2=O)cc1
11,37.3 µM,Oc1cc(OCc2cccc(C(F)(F)F)c2)ccc1-c1ccn[nH]1
12,> 50 µM (inactive),COc1ccccc1C(=O)N1CCC(S(=O)(=O)c2ccc(-c3ccco3)cc2)CC1
13,> 50 µM (inactive),Fc1ccccc1Cc1nc(-c2ccc3nncn3c2)no1
14,> 50 µM (inactive),Cc1ccc(Cn2nnc(-c3ccccc3Cl)n2)cc1
15,41 µM,O=C(CSc1nc2ccccc2n1S(=O)(=O)c1ccc(Br)cc1)Nc1ccc([N+](=O)[O-])cc1Cl
16,5.34 µM,COc1ccc(NC(=O)c2nnc(C(=O)NCCN3CCCCCC3)s2)cc1
17,23.8 µM,Cc1ccccc1NC(=O)c1cc(S(=O)(=O)N2CCCCCC2)ccc1Cl
18,1.56 µM,Cn1c2ccccc2c(=O)c2c(=O)n(Cc3ccccc3)c(-c3ccco3)nc21
19,0.732 µM,CCOc1ccc2c(c1)c(=O)c(C(=O)c1ccc(C)cc1)cn2CC(=O)Nc1ccc(OC)c(OC)c1
20,2.08 µM,CN(C)C(=O)CSc1nnc(-c2cccc(Cl)c2)n1-c1ccc(Cl)c(C(F)(F)F)c1
21,26.6 µM,Cc1ccc(NC(=O)Cn2c(Nc3cccc(C)c3)nc(C)cc2=O)cc1
22,16.7 µM,O=c1c2cnc(N3CCOCC3)nc2ccn1CCc1ccccc1

row,Compound,IC50
1,O=C1c2c(O)c(Cl)cc3c2[C@@]2(Oc4cc(Cl)c(O)c5c4[C@]3(O2)[C@@H]2O[C@@H]2C5=O)[C@@H]2O[C@H]12,1.1 µM
2,Cc1cc(C)nc(-n2nc(C)c3c2NC(=O)CSC3c2ccccc2F)n1 (stereo not given),29.5 µM
